Laboratory results: patent US20240360134A1, “PYRAZOLOPYRIMIDINES AND THEIR USES AS PDGFR INHIBITORS” (priority 2021, published 2024)

Legend:
PDGFRβ = PDGFRβ (Rattus norvegicus (Rat), UniProt Q05030); test: PDGFRβ Cellular Assay (PDGFRb P-Y751 HTRF, PDGF-BB stimulated A10 cells); assay type: cell-based
Protocol: Cell Culture and Preparation: Cells are cultured according to ATCC procedure (5) with the addition of the antibiotic penicillin-streptomycin. If working from frozen, cells should be thawed according to ATCC procedure. Depending on the cell density of frozen vial, cells will need time to recover from thaw. An 80% confluent T75 flask should be enough for one 384 well plate.
Stock Solutions: Rat PDGFBB. A 100 ug/mL stock is prepared by reconstituting 50 ug in 500 μL of 4 mM HCl and 0.1% BSA. It can be stored for a month at 4° C., or aliquoted out and frozen in the −20/−80° C. to avoid multiple free-thaw cycles.
1× Cisbio cell lysis buffer. The cell lysis buffer is diluted 4-fold with molecular grade water. The blocking agent is then diluted 25-fold in the diluted lysis buffer.
Antibody solutions. Equal amounts d2 and cryptate antibody are diluted 20-fold in detection buffer.
Rat PDGFBB. A working stock of 100 ng/mL is created from the stock solution in 10% FBS culture media.
Step 1: Plating Cells: Media from the A10 cell flask is aspirated. The cells are rinsed with PBS and then trypsinized to disperse the cell layer. The cells are then pelleted are resuspended to 1.25e5 cells/mL. […] Plates are covered and placed in the incubator (37° C. 5% CO2) overnight to allow cells to adhere.
Step 2: Compound Dispense: Approximately 18 hours after plating, dispense 40 nL compound onto cells using Echo. […] The plate is returned to the incubator for 3 hours.
After 10 minutes the media is removed by flicking the plate.
Step 4: Cell lysis and antibody addition: 20 uL lysis buffer per well is added to the plate via Tempest. 5 uL antibody solution is added per well via the Tempest. The plate is placed on the shaker at 230 rpm for 1 hour at room temperature.
Step 5: Detection: The plate is read using the HTRF module on the BMG Pherastar. Data is analyzed using Genedata Screener.
IC50 values are determined from a 4-parameter fit, using the following equation: Y=Bottom+(Top−Bottom)/(1+10((Log IC50−X)*Hill slope)), where X=log10 of the compound concentration; top can be defined by PC; bottom defined by NC.

VEGFR2, unphosphorylated = VEGFR2, unphosphorylated (Homo sapiens (Human), UniProt P35968); test: VEGFR ADP GLO assay; assay type: biochemical; details: 5 nM VEGFR2, 1.2 mM ATP, 1 mg/mL Srctide, 180 min
Protocol: Assay buffer stock contains 50 mM HEPES pH7.5, 10 mM MgCl2, 0.01% Brij-35, and 1 mM EGTA.
Unphosphorylated VEGFR2. 52.6 μM in 50 mM Tris-HCl, pH 8.0, 50 mM NaCl, 5% Glycerol, 0.5 mM TCEP. Store at −80° C. in aliquots.
10 mg/mL srctide solution, prepared in Assay buffer (Assay buffer stock with 2 mM DTT, 0.1% Pluronic F-127, and 0.1 mg/mL ovalbumin). Sonicate 10 mg/ml Srctide solution for 10 minutes and then vacuum filter.
Assay buffer. Add DTT to 2 mM, Pluronic F-127 to 0.1% and ovalbumin to 0.1 mg/mL to Assay buffer stock.
2× kinase solution. Make a working solution of 10 nM unphosphorylated VEGFR2 in Assay buffer. Vacuum filter 2× kinase solution prior to running assay. Keep on ice until use.
2× substrate/ATP solution. Make a working solution of 2 mg/mL srctide and 2.4 mM ATP in Assay buffer. Keep on ice until use.
Step 1. Dispensing inhibitors/controls: Using Echo, dispense 10 nL/well compound serial dilutions in DMSO to columns 1-22 (in 384-well plates) or columns 1-44 (in 1536-well plates). Dilution series=11 pt, 3-fold dilutions. The top compound concentration in the source plate is 4 mM. The top compound concentration in the assay plate is 10 uM. Using Echo, dispense 10 nl/well DMSO to column 23 (in 384-well plates) or columns 45-47 (in 1536-well plates). These wells will serve as negative control wells Using Echo, dispense 10 nl/well 400 uM TAK-593 in DMSO to column 24 (in 384-well plates) or column 48 (in 1536-well plates). The final concentration of TAK-593 in the assay should be 1 uM. These wells will serve as positive control wells.
Step 2. Pre-incubation of inhibitors with kinase: Add 2 μL/well 2× kinase solution. Centrifuge at 1000 rpm for 1 min. Incubate at room temperature for 30 min.
Step 3. Kinase cascade reaction: Add 2 μL/well 2× substrate/ATP solution to initiate kinase reactions. Centrifuge at 1000 rpm for 1 min. Incubate at room temperature for 180 min.
Final concentrations of components in the assay:
Step 4. Quench: Add 2 uL/well ADP Glo Reagent+0.05% CHAPS. Centrifuge at 1000 rpm for 1 min; Incubate at room temperature for one hour.
Step 5. Detection: Add 2 uL/well Kinase Detection Reagent+0.05% CHAPS. Centrifuge at 1000 rpm for 1 min; Incubate at room temperature for 1 hour; Read Luminescence on a plate reader.
% Inhibition: % Inhibition=(NC−sample)/(NC−PC)*100 where NC is the mean of negative control (reactions without inhibitor), and PC is the mean of positive control (1 μM TAK-593).
IC50 values are determined from a 4-parameter fit, using the following equation: Y=Bottom+(Top−Bottom)/(1+10^(Log IC50-X)*Hill Slope), where X=log10 of the compound concentration; top can be defined by PC; bottom defined by NC.

[1] = target: His6-TEV-PDGFRβ (557-1016) (Homo sapiens (Human), UniProt P09619); test: PDGFRβ HTRF Assay; assay type: biochemical; details: 800 μM ATP, 0.5 μM TK-substrate biotin peptide, 30 min pre-incubation, 3 hours reaction; read-out: PDGFR HTRF IC50
Protocol: Instrumentation: a. Compound liquid handling: LabCyte Echo; b. Reagent liquid handling: Thermo Scientific Multidrop Combi; c. BMG PHERAStar multilabel plate reader.
Protein Reagent: His6-TEV-PDGFRβ Protein Prep prepared at Accelagen.
Assay buffer stock solution, contains 50 mM Hepes, 10 mM MgCl2, 1 mM EGTA, and 0.01% Brij-35, 0.01% ovalbumin, 2 mM DTT at pH 7.5, in molecular biology grade water. Store at room temperature.
Assay buffer. Dilute 5× Kinase buffer 5-fold with molecular biology grade water and add DTT to 2 mM and ovalbumin to 0.1 mg/mL (or 0.01%).
2× protein solution. Make a working solution of […] PDGFRβ in assay buffer. Keep on ice until use to maintain enzyme stability.
2× substrate solution. Make a working solution of 1.6 mM ATP and 1 μM TK-substrate biotin peptide in assay buffer. 3× quench/detection solution.
Step 2. PDGFRβ E+I pre-incubation: Add 2 μL 2× protein solution to columns 1-24 using the Multidrop Combi. Centrifuge at 1000 rpm for 1 min. Incubate 30 min at RT
Step 2. Enzymatic reaction: Add 2 μL substrate solution to columns 1-24 to initiate the reaction using the Multidrop Combi; cover/seal the assay plate to reduce evaporation. Centrifuge at 1000 rpm for 1 min. Incubate at room temperature for 3 hours.
Final concentrations of components in PDGFRp cascade assay:
0.5 μM TK-substrate biotin peptide
Step 3. Quench/Detection: Add 2 μl 3× quench/detection solution to columns 1-24 using the Multidrop Combi; cover/seal the plate. Centrifuge 1 min 1000 rpm. Incubate at RT for 60 min.
HTRF ratio values calculated by the instrument (Ratio is acceptor counts/donor counts*10,000) is exported from the plate reader and used in data analysis. The exported data will be used to calculate 1) compound activity and 2) assay statistics. […] Assay statistics can include Robust Z′ and Signal to Background.
% Inhibition Calculation: Percent inhibition will be calculated for sample wells based on the equation: […]
IC50 Calculation: For IC50 determination, full 11-point dose response data will be processed using the following equation: […]

[2] = target: Tb-labeled inactive PDGFRβ (Homo sapiens (Human), UniProt P09619); test: biochemical; assay type: binding; details: read-out: PDGFR Lantha IC50
Chain of Tb-labeled inactive PDGFRβ (P09619 whole entry, looked up): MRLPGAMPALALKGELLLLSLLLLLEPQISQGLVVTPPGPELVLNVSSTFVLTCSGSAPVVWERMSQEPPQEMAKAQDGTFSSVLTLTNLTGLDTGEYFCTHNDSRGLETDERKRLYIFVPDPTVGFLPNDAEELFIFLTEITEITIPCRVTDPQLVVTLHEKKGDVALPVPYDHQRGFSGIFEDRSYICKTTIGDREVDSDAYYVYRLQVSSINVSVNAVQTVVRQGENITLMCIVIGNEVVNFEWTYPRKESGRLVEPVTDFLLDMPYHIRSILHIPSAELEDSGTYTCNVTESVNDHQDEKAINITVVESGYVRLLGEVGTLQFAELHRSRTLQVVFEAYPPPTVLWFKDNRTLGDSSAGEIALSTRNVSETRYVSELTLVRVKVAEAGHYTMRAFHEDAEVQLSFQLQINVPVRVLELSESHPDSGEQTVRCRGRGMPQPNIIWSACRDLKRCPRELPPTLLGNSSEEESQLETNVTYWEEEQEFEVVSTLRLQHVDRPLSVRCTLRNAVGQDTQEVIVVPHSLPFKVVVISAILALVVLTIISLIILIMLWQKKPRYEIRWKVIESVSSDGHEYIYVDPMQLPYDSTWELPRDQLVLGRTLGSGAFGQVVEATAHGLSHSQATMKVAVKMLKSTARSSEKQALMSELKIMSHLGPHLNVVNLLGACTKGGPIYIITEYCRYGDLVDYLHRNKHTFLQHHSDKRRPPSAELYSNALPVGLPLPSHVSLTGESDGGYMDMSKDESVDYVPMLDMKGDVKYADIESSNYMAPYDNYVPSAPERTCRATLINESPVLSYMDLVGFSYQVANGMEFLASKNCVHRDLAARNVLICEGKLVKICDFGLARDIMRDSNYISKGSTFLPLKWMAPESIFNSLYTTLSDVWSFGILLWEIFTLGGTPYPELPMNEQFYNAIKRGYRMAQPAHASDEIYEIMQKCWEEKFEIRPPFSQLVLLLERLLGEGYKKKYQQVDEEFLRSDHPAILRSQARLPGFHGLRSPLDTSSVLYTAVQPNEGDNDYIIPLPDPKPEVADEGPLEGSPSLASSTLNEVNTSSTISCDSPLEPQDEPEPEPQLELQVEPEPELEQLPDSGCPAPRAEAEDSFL

Chain of VEGFR2, unphosphorylated (P35968 whole entry, looked up): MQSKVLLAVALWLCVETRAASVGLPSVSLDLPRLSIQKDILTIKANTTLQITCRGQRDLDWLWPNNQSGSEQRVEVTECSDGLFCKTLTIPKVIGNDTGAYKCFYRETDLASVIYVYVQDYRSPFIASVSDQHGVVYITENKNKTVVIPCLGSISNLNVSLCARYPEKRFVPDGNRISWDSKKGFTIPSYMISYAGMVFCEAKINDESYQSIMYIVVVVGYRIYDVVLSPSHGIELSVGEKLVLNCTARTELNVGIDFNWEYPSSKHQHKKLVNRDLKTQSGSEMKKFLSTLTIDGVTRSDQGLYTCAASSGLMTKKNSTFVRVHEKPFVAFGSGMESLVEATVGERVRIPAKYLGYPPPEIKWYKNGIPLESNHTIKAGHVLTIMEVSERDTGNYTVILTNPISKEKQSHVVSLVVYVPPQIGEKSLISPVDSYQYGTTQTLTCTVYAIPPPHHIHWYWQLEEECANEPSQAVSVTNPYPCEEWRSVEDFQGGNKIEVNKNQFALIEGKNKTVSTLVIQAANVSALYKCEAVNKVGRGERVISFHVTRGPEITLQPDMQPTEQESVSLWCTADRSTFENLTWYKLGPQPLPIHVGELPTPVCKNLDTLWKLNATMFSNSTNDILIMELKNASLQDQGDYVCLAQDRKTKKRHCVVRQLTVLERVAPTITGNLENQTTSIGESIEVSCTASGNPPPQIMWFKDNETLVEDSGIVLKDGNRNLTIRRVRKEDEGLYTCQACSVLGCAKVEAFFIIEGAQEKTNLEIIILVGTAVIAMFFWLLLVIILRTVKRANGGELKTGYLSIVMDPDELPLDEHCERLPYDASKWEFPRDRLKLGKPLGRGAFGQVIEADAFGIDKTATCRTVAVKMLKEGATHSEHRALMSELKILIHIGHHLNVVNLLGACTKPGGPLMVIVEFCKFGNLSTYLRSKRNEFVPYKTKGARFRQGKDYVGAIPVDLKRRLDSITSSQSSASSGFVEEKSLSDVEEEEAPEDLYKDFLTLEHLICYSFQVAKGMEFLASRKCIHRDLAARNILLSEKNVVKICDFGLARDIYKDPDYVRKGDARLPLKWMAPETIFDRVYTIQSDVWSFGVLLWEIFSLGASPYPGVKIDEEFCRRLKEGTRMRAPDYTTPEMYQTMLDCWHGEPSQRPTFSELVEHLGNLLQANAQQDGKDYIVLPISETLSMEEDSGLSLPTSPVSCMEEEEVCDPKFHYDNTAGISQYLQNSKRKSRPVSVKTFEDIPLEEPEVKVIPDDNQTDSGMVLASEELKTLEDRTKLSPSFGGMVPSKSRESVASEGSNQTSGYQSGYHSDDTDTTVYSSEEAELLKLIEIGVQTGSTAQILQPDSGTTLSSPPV
Chain of PDGFRβ (Q05030 whole entry, looked up): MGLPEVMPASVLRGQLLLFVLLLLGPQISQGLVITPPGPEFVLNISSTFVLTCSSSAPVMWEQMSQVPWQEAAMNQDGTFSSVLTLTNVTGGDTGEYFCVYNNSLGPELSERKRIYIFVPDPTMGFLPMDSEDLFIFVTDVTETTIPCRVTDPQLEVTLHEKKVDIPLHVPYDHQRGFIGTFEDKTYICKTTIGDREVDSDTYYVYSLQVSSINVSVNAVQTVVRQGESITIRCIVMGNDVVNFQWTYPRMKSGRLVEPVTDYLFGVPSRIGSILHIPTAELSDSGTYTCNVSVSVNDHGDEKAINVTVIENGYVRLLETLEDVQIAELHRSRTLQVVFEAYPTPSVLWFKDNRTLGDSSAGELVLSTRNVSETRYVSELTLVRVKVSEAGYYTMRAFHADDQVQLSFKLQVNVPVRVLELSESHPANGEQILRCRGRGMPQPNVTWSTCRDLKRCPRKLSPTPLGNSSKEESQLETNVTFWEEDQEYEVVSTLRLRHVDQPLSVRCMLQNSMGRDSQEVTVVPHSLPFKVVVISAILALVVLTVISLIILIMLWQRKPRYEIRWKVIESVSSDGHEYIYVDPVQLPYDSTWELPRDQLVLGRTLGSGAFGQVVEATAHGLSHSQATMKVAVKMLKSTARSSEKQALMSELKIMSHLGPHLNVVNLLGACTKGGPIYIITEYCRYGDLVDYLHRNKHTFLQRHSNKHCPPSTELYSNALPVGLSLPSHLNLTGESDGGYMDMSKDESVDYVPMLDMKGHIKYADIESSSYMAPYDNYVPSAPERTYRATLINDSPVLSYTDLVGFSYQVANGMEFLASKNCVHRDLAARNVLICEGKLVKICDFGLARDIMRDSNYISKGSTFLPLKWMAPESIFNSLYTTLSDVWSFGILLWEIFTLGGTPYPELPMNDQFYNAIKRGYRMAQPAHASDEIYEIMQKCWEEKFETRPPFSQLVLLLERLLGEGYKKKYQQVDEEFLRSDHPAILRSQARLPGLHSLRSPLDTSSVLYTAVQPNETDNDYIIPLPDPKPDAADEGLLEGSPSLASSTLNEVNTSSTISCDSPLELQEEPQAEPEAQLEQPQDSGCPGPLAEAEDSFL
Chain of His6-TEV-PDGFRβ (557-1016) (P09619 whole entry, looked up): as the sequence (P09619 whole entry, looked up) above

Row | SMILES | IC50 (PDGFRβ) [nM] | IC50 (VEGFR2, unphosphorylated) [nM] | IC50 [1] [nM] | IC50 [2] [nM]
1 | Cc1ncc(C(=O)NCCN2CC[C@H](C)C2)cc1Nc1nn(C)c2nc(Nc3cncnc3)ncc12 [Example 12, (S)-6-methyl-5-((1-methyl-6-(pyrimidin-5-ylamino)-1H-pyrazolo[3,4-d]pyrimidin-3-yl)amino)-N-(2-(3-methylpyrrolidin-1-yl)ethyl)nicotinamide] | 110 | > 7500 |  | 
2 | Cn1nc(Nc2cc(C(=O)NCCN3CCCC3(C)C)ccc2F)c2cnc(Nc3ccnnc3)nc21 [Example 50, N-(2-(2,2-dimethylpyrrolidin-1-yl)ethyl)-4-fluoro-3-((1-methyl-6-(pyridazin-4-ylamino)-1H-pyrazolo[3,4-d]pyrimidin-3-yl)amino)benzamide] | 45.8 | > 7500 |  | 
3 | Cc1ncc(C(=O)NCCN2CC3COCC3C2)cc1Nc1nn(C)c2nc(Nc3cnn(C)c3)ncc12 (stereo not shown) [Example 26, 6-methyl-5-((1-methyl-6-((1-methyl-1H-pyrazol-4-yl)amino)-1H-pyrazolo[3,4-d]pyrimidin-3-yl)amino)-N-(2-(tetrahydro-1H-furo[3,4-c]pyrrol-5(3H)-yl)ethyl)nicotinamide] | 92.5 | > 7500 |  | 
4 | Cc1ncc(C(=O)NCCN2CCC3(CC2)COC3)cc1Nc1nn(C)c2nc(Nc3cnn(C)c3)ncc12 [Example 20, N-(2-(2-oxa-7-azaspiro[3.5]nonan-7-yl)ethyl)-6-methyl-5-((1-methyl-6-((1-methyl-1H-pyrazol-4-yl)amino)-1H-pyrazolo[3,4-d]pyrimidin-3-yl)amino)nicotinamide] | 168 | > 7500 |  | 
5 | Cc1ncc(C(=O)NCCN2CCC3(CCC3)C2)cc1Nc1nn(C)c2nc(Nc3cnn(C)c3)ncc12 [Example 83, N-(2-(6-azaspiro[3.4]octan-6-yl)ethyl)-6-methyl-5-((1-methyl-6-((1-methyl-1H-pyrazol-4-yl)amino)-1H-pyrazolo[3,4-d]pyrimidin-3-yl)amino)nicotinamide] | 26.2 | > 7500 |  | 
6 | Cc1ncc(C(=O)NCCN2CCCC23CC3)cc1Nc1nn(C)c2nc(Nc3cnn(C)c3)ncc12 [Example 53, N-(2-(4-azaspiro[2.4]heptan-4-yl)ethyl)-6-methyl-5-((1-methyl-6-((1-methyl-1H-pyrazol-4-yl)amino)-1H-pyrazolo[3,4-d]pyrimidin-3-yl)amino)nicotinamide] | 6.2 | 4270 |  | 
7 | Cc1ncc(C(=O)NCCN2CCOCC23CC3)cc1Nc1nn(C)c2nc(Nc3cnn(C)c3)ncc12 [Example 24, N-(2-(7-oxa-4-azaspiro[2.5]octan-4-yl)ethyl)-6-methyl-5-((1-methyl-6-((1-methyl-1H-pyrazol-4-yl)amino)-1H-pyrazolo[3,4-d]pyrimidin-3-yl)amino)nicotinamide] | 22.1 | > 7500 |  | 
8 | COCC1CCCN1CCNC(=O)c1cnc(C)c(Nc2nn(C)c3nc(Nc4cnn(C)c4)ncc23)c1 (stereo not shown) [Example 25, N-(2-(2-(methoxymethyl)pyrrolidin-1-yl)ethyl)-6-methyl-5-((1-methyl-6-((1-methyl-1H-pyrazol-4-yl)amino)-1H-pyrazolo[3,4-d]pyrimidin-3-yl)amino)nicotinamide] | 12.9 | > 7500 |  | 
9 | Cc1ncc(C(=O)NCCN2CCCC23COC3)cc1Nc1nn(C)c2nc(Nc3cnn(C)c3)ncc12 [Example 18, N-(2-(2-oxa-5-azaspiro[3.4]octan-5-yl)ethyl)-6-methyl-5-((1-methyl-6-((1-methyl-1H-pyrazol-4-yl)amino)-1H-pyrazolo[3,4-d]pyrimidin-3-yl)amino)nicotinamide] | 40.1 | > 7500 |  | 
10 | Cc1ncc(C(=O)NCCN(C)C2CCOCC2)cc1Nc1nn(C)c2nc(Nc3cnn(C)c3)ncc12 [Example 21, 6-methyl-N-(2-(methyl(tetrahydro-2H-pyran-4-yl)amino)ethyl)-5-((1-methyl-6-((1-methyl-1H-pyrazol-4-yl)amino)-1H-pyrazolo[3,4-d]pyrimidin-3-yl)amino)nicotinamide] | 66.3 | > 7500 |  | 
11 | Cc1ncc(C(=O)NCCN2CCCC2(C)C)cc1Nc1nn(C)c2nc(NC3CCS(=O)(=O)CC3)ncc12 [Example 45, N-(2-(2,2-dimethylpyrrolidin-1-yl)ethyl)-5-((6-((1,1-dioxido-tetrahydro-2H-thiopyran-4-yl)amino)-1-methyl-1H-pyrazolo[3,4-d]pyrimidin-3-yl)amino)-6-methylnicotinamide] |  | > 10000 | 51 | 1640
12 | Cc1ncc(C(=O)NCCN2CCS(=O)(=O)CC2)cc1Nc1nn(C)c2nc(Nc3cnn(C)c3)ncc12 [Example 23, N-(2-(1,1-dioxidothiomorpholino)ethyl)-6-methyl-5-((1-methyl-6-((1-methyl-1H-pyrazol-4-yl)amino)-1H-pyrazolo[3,4-d]pyrimidin-3-yl)amino)nicotinamide] | 294 | > 7500 |  | 
